In patent publication US8188078B2 (Sanofi-Aventis, priority 2007, dated 2012) one finds IC50 data, which are given here for 29 compounds.

The target of the assay is T1, MET (Homo sapiens, UniProt P08581).
T1 construct: endogenous in cells; host or cells: MKN45 cells
As to the kind of experiment: Test C: inhibition of the autophosphorylation of MET, ELISA technique (pppY1230, 1234, 1235), MKN45 cells. Type of assay: cell-based. In outline:
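MKN45 cells adhered 24 h, then treated 1 h with compound at 6 concentrations in duplicate, final range 10000 to 30 nM. Lysates assayed by phospho-MET (pY1230/1234/1235) sandwich ELISA with HRP chromogen read at 450 nm.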
For orientation: In an ELISA, binding on a coated surface is turned into a signal by an enzyme label.

Where a name gives a salt, the structure may show the parent alone.

T1 sequence (P08581 25-1390): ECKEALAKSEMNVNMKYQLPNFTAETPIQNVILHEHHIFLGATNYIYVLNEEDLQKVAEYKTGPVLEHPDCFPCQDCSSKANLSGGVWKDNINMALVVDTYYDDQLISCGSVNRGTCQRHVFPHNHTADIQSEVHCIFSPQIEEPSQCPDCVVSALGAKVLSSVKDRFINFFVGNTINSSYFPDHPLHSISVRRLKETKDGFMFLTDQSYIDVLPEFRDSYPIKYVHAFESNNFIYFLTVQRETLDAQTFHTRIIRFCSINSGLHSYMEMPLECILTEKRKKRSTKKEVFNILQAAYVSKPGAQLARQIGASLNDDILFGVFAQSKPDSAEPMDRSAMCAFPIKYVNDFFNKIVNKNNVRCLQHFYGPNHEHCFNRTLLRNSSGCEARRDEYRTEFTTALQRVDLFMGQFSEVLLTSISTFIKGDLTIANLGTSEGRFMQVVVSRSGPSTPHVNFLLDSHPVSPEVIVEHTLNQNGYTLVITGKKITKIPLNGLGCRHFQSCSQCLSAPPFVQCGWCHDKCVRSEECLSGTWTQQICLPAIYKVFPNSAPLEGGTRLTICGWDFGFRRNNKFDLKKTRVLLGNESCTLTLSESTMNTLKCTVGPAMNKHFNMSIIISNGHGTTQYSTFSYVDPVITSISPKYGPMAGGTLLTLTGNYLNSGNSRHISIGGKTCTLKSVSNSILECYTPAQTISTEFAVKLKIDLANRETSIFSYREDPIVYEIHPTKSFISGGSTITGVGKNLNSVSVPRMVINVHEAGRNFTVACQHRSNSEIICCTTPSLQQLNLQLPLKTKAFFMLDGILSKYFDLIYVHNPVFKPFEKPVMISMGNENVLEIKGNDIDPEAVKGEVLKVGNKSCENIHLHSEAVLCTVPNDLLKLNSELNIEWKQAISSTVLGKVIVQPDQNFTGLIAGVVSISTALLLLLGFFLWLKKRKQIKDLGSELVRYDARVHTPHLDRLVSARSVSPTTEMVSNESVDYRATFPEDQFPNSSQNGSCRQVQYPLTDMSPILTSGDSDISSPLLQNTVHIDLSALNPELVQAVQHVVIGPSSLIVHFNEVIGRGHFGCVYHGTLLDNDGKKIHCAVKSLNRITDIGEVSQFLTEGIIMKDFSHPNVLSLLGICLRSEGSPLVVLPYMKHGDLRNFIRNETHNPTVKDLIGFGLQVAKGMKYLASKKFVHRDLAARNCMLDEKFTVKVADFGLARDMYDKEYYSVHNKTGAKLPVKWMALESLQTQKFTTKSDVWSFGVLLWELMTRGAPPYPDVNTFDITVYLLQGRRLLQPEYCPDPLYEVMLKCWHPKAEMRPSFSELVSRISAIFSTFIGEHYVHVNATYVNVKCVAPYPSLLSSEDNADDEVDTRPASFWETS

The compound `CC(Oc1ccc2nc(NC(=O)NCCN3CCOCC3)sc2c1)c1c(Cl)ccc(F)c1Cl` (single isomer, unassigned) [Example 25, 1-{6-[(1R*)-(2,6-dichloro-3-fluorophenyl)ethoxy]-1,3-benzothiazol-2-yl}-3-(2-morpholin-4-ylethyl)urea] returned an IC50 below 500 nM.

With `C[C@@H](Oc1cc2sc(NC(=O)NCCN3CCOCC3)nc2cc1F)c1c(Cl)ccc(F)c1Cl` (single isomer, unassigned) [Example 32, 1-{6-[(1R)-(2,6-dichloro-3-fluorophenyl)ethoxy]-5-fluoro-1,3-benzothiazol-2-yl}-3-(2-morpholin-4-ylethyl)urea or 1-{6-[(1S)-(2,6-dichloro-3-fluorophenyl)ethoxy]-5-fluoro-1,3-benzothiazol-2-yl}-3-(2-morpholin-4-ylethyl)urea], the IC50 was below 500 nM.

With `C[C@@H](Oc1cc2sc(NC(=O)NCCN3CCOCC3)nc2cc1F)c1c(Cl)ccc(F)c1Cl` (single isomer, unassigned) [Example 33, 1-{6-[(1R)-(2,6-dichloro-3-fluorophenyl)ethoxy]-5-fluoro-1,3-benzothiazol-2-yl}-3-(2-morpholin-4-ylethyl)urea or 1-{6-[(1S)-(2,6-dichloro-3-fluorophenyl)ethoxy]-5-fluoro-1,3-benzothiazol-2-yl}-3-(2-morpholin-4-ylethyl)urea], the IC50 is 500 to 10000 nM.

`CC(Oc1cc2sc(NC(=O)NCCO)nc2cc1F)c1c(Cl)ccc(F)c1Cl` (single isomer, unassigned) [Example 99, 1-{6-[(1R*)-1-(2,6-dichloro-3-fluorophenyl)ethoxy]-5-fluoro-1,3-benzothiazol-2-yl}-3-(2-hydroxyethyl)urea] gave an IC50 below 500 nM.

With `CCN1CCN(CCNC(=O)Nc2nc3cc(F)c(OC(C)c4c(Cl)ccc(F)c4Cl)cc3s2)CC1` (single isomer, unassigned) [Example 101, 1-{6-[(1R*)-1-(2,6-dichloro-3-fluorophenyl)ethoxy]-5-fluoro-1,3-benzothiazol-2-yl}-3-[2-(4-ethylpiperazin-1-yl)ethyl]urea], the IC50 is below 500 nM.

`CCN1CCN(CCNC(=O)Nc2nc3cc(F)c(OC(C)c4c(Cl)ccc(F)c4Cl)cc3s2)CC1` (single isomer, unassigned) [Example 102, 1-{6-[(1S*)-1-(2,6-dichloro-3-fluorophenyl)ethoxy]-5-fluoro-1,3-benzothiazol-2-yl}-3-[2-(4-ethylpiperazin-1-yl)ethyl]urea]: the half-maximal inhibitory concentration (IC50) was 500 to 10000 nM.

For the compound `CC(Oc1ccc2nc(NC(=O)NCCN3CCN(C)CC3)sc2c1)c1c(F)ccc(Cl)c1Cl` (single isomer, unassigned) [Example 109, 1-{6-[(1R*)-1-(2,3-dichloro-6-fluorophenyl)ethoxy]-1,3-benzothiazol-2-yl}-3-[2-(4-methylpiperazin-1-yl)ethyl]urea], the IC50 was below 500 nM.

In turn, `CC(Oc1cc2sc(NC(=O)NCCN3CCOCC3)nc2cc1F)c1c(F)ccc(Cl)c1Cl` (single isomer, unassigned) [Example 112, 1-{6-[(1R*)-1-(2,3-dichloro-6-fluorophenyl)ethoxy]-5-fluoro-1,3-benzothiazol-2-yl}-3-[2-(morpholin-4-yl)ethyl]urea] came in with a 50% inhibitory concentration (IC50) below 500 nM.

The compound `CC(Oc1cc2sc(NC(=O)NCCN3CCOCC3)nc2cc1F)c1c(F)ccc(Cl)c1Cl` (single isomer, unassigned) [Example 113, 1-{6-[(1S*)-1-(2,3-dichloro-6-fluorophenyl)ethoxy]-5-fluoro-1,3-benzothiazol-2-yl}-3-[2-(morpholin-4-yl)ethyl]urea] gave an IC50 below 500 nM.

Compound `CC(Oc1cc2sc(NC(=O)NCCN3CCN(C)CC3)nc2cc1F)c1c(F)ccc(Cl)c1Cl` (single isomer, unassigned) [Example 116, 1-{6-[(1R*)-1-(2,3-dichloro-6-fluorophenyl)ethoxy]-5-fluoro-1,3-benzothiazol-2-yl}-3-[2-(4-methylpiperazin-1-yl)ethyl]urea] showed a 50% inhibitory concentration (IC50) below 500 nM.

Consider `CC(Oc1cc2sc(NC(=O)NCCN3CCN(C)CC3)nc2cc1F)c1c(F)ccc(Cl)c1Cl` (single isomer, unassigned) [Example 117, 1-{6-[(1S*)-1-(2,3-dichloro-6-fluorophenyl)ethoxy]-5-fluoro-1,3-benzothiazol-2-yl}-3-[2-(4-methylpiperazin-1-yl)ethyl]urea], for which the IC50 was in the range of 500 to 10000 nM.

Consider `CC(Oc1cc2sc(NC(=O)NCCN3CCCC3)nc2cc1F)c1c(F)ccc(Cl)c1Cl` (single isomer, unassigned) [Example 119, 1-{6-[(1R*)-1-(2,3-dichloro-6-fluorophenyl)ethoxy]-5-fluoro-1,3-benzothiazol-2-yl}-3-[2-(pyrrolidin-1-yl)ethyl]urea], for which the half-maximal inhibitory concentration (IC50) is below 500 nM.

For the compound `CC(Oc1ccc2nc(NC(=O)NCCN3CCCC3)sc2c1)c1c(F)ccc(Cl)c1Cl` (single isomer, unassigned) [Example 121, 1-{6-[(1R*)-(2,3-dichloro-6-fluorophenyl)ethoxy]-1,3-benzothiazol-2-yl}-3-[2-(pyrrolidin-1-yl)ethyl]urea], the IC50 is below 500 nM.

Compound `CC(Oc1ccc2nc(NC(=O)NCCN3CCOCC3)[nH]c2c1)c1c(Cl)ccc(F)c1Cl` (centres unmarked) [Example 4, 4-{2-[({6-[1-(2,6-Dichloro-3-fluorophenyl)ethoxy]-1H-benzimidazol-2-yl}carbamoyl)amino]ethyl}morpholin-4-ium trifluoroacetate] had a half-maximal inhibitory concentration (IC50) of 500 to 10000 nM.

Turning to `CC(Oc1ccc2nc(NC(=O)NCCN3CCOCC3)sc2c1)c1c(F)cccc1F` (centres unmarked) [Example 18, 1-{6-[1-(2,6-difluorophenyl)ethoxy]-1,3-benzothiazol-2-yl}-3-(2-morpholin-4-ylethyl)urea], the 50% inhibitory concentration (IC50) lay within 500 to 10000 nM.

Compound `CC(Oc1ccc2nc(NC(=O)NCCN3CCOCC3)sc2c1)c1ccccc1C(F)(F)F` (centres unmarked) [Example 19, 1-(2-morpholin-4-ylethyl)-3-(6-{1-[2-(trifluoromethyl)phenyl]ethoxy}-1,3-benzothiazol-2-yl)urea] gave a 50% inhibitory concentration (IC50) of 500 to 10000 nM.

In turn, `CC(Oc1ccc2nc(NC(=O)NCCC3CCNCC3)sc2c1)c1c(Cl)ccc(F)c1Cl` (centres unmarked) [Example 39, 1-{6-[1-(2,6-Dichloro-3-fluorophenyl)ethoxy]-1,3-benzothiazol-2-yl}-3-(2-piperidin-4-ylethyl)urea trifluoroacetate] gave an IC50 below 500 nM.

In turn, `CC(Oc1ccc2nc(NC(=O)NCCCn3cccc3)sc2c1)c1c(Cl)ccc(F)c1Cl` (centres unmarked) [Example 40, 1-{6-[1-(2,6-dichloro-3-fluorophenyl)ethoxy]-1,3-benzothiazol-2-yl}-3-[3-(1H-pyrrol-1-yl)propyl]urea] came in with an IC50 of 500 to 10000 nM.

In turn, `CC(Oc1ccc2nc(NC(=O)NCCCN3CCC(Cc4ccccc4)CC3)sc2c1)c1c(Cl)ccc(F)c1Cl` (centres unmarked) [Example 41, 1-[3-(4-benzylpiperidin-1-yl)propyl]-3-{6-[1-(2,6-dichloro-3-fluorophenyl)ethoxy]-1,3-benzothiazol-2-yl}urea] displayed a concentration for half-maximal inhibition (IC50) of 500 to 10000 nM.

Compound `CC(Oc1ccc2nc(NC(=O)NCCCN3CCOCC3)sc2c1)c1c(Cl)ccc(F)c1Cl` (centres unmarked) [Example 42, 1-{6-[1-(2,6-dichloro-3-fluorophenyl)ethoxy]-1,3-benzothiazol-2-yl}-3-(3-morpholin-4-ylpropyl)urea] gave an IC50 below 500 nM.

Take `CC(Oc1ccc2nc(NC(=O)NCCCN(C)C)sc2c1)c1c(Cl)ccc(F)c1Cl` (centres unmarked) [Example 43, 1-{6-[1-(2,6-dichloro-3-fluorophenyl)ethoxy]-1,3-benzothiazol-2-yl}-3-[3-(dimethylamino)propyl]urea]: the half-maximal inhibitory concentration (IC50) is below 500 nM.

Turning to `CC(Oc1ccc2nc(NC(=O)NCCCN3CCCCC3)sc2c1)c1c(Cl)ccc(F)c1Cl` (centres unmarked) [Example 44, 1-{6-[1-(2,6-dichloro-3-fluorophenyl)ethoxy]-1,3-benzothiazol-2-yl}-3-(3-piperidin-1-ylpropyl)urea], the IC50 is below 500 nM.

The compound `CC(Oc1ccc2nc(NC(=O)NCCCN3CCCC3=O)sc2c1)c1c(Cl)ccc(F)c1Cl` (centres unmarked) [Example 45, 1-{6-[1-(2,6-dichloro-3-fluorophenyl)ethoxy]-1,3-benzothiazol-2-yl}-3-[3-(2-oxopyrrolidin-1-yl)propyl]urea] came in with an IC50 below 500 nM.

Compound `CC(Oc1ccc2nc(NC(=O)NCCCN3CCN(Cc4c(F)cccc4Cl)CC3)sc2c1)c1c(Cl)ccc(F)c1Cl` (centres unmarked) [Example 46, 1-{3-[4-(2-chloro-6-fluorobenzyl)piperazin-1-yl]propyl}-3-{6-[1-(2,6-dichloro-3-fluorophenyl)ethoxy]-1,3-benzothiazol-2-yl}urea] returned an IC50 of 500 to 10000 nM.

`CC(Oc1ccc2nc(NC(=O)NCCCN3C(C)CCCC3C)sc2c1)c1c(Cl)ccc(F)c1Cl` (centres unmarked) [Example 47, 1-{6-[1-(2,6-dichloro-3-fluorophenyl)ethoxy]-1,3-benzothiazol-2-yl}-3-[3-(2,6-dimethylpiperidin-1-yl)propyl]urea] came in with an IC50 of 500 to 10000 nM.

`CC(Oc1ccc2nc(NC(=O)NCCCN3CCCCCC3)sc2c1)c1c(Cl)ccc(F)c1Cl` (centres unmarked) [Example 48, 1-(3-azepan-1-ylpropyl)-3-{6-[1-(2,6-dichloro-3-fluorophenyl)ethoxy]-1,3-benzothiazol-2-yl}urea] displayed a 50% inhibitory concentration (IC50) below 500 nM.

On to `CC(Oc1ccc2nc(NC(=O)NCCCN3CCN(Cc4ccccc4)CC3)sc2c1)c1c(Cl)ccc(F)c1Cl` (centres unmarked) [Example 49, 1-[3-(4-benzylpiperazin-1-yl)propyl]-3-{6-[1-(2,6-dichloro-3-fluorophenyl)ethoxy]-1,3-benzothiazol-2-yl}urea], for which the IC50 was below 500 nM.

Compound `CC(Oc1ccc2nc(NC(=O)NCCN3CCCCC3)sc2c1)c1c(Cl)ccc(F)c1Cl` (centres unmarked) [Example 50, 1-{6-[1-(2,6-dichloro-3-fluorophenyl)ethoxy]-1,3-benzothiazol-2-yl}-3-(2-piperidin-1-ylethyl)urea] had a 50% inhibitory concentration (IC50) below 500 nM.

Regarding `CC(Oc1ccc2nc(NC(=O)NCCN3CCCC3)sc2c1)c1c(Cl)ccc(F)c1Cl` (centres unmarked) [Example 51, 1-{6-[1-(2,6-dichloro-3-fluorophenyl)ethoxy]-1,3-benzothiazol-2-yl}-3-(2-pyrrolidin-1-ylethyl)urea], the IC50 was below 500 nM.

Broadly, the IC50 is the midpoint of a concentration-inhibition curve.
